Assay results taken from patent US6037351A, “Method of inhibiting hepatitis B virus” (priority 1996, dated 2000).

Tests used:
[1] = Viability of 2.2.15 cells (propidium iodide FACS, 35S methionine incorporation); assay type: cell-based; details: human, 1000 μg/ml, six days, read-out: cells as viable as untreated controls
Description: Cell viability was measured by flow cytometry using a FACscan cytometer, Becton Dickinson, Sunnyvale, Calif., USA, after incubation with propidium iodide, as in Platt and Jacob, Eur. J. Biochem. 208, 187-193 (1992).
The decrease was not due to toxicity of NBDNJ, since 90% of the cells maintained in 1000 μgs/ml NBDNJ for six days were as viable as untreated controls, as determined by FACs analysis of propidium iodide stained cells and ^[35] -S methionine incorporation into proteins.

LHBs (PreS1) antigen = assay: ELISA of LHBs (PreS1) antigen in unfractionated culture medium of 2.2.15 cells; assay type: cell-based, HBV
Description: (§1) FIG. 3D: Histogram of the area under the averaged peaks of the densitometric tracing of the gel in FIG. 3B. […] Equal volumes of the indicated samples were tested for HBV envelope antigens using the enzyme-linked imminosorbent assay (ELISA) method. Samples of unfractionated medium (FIGS. 4A, 4B and 4C) or partially purified virus (FIGS. 4D, 4E and 4F) from 3-day cultures were tested for HBV SHBs ("S) (FIGS. 4A and 4D), LHBs: "PreS1" (FIGS. 4B and 4E) or MHBs "PreS2" (FIGS. 4C and 4F) epitopes. Cultures were maintained in the indicated concentrations of NBDNJ, expressed in millimolar units and shown along the X axis.
(§2) Detection of HBV proteins by the Enzyme Linked Immunoabsorbant assay (ELISA).
(§3) Monoclonal antibodies used herein are well-known and are described by Heerman et al., J. Virol. […]
(§4) Bound antigen was detected by incubation with peroxidase conjugated goat anti-HBs antibody (Behring) followed by development in orthophenylenediamine (0.33 mg/ml PBS-peroxide solution). Optical densities were read in a Behring plate reader. Tests on purified virus and total medium were conducted over a series of sample dilutions to insure proper quantification.
(§5) To distinguish between these possibilities, the amount and nature of envelope antigens in the culture medium was determined by both ELISA and Western analysis. […]

hepatitis B virus (HBV) [2] = assay: Intracellular HBV DNA in 2.2.15 cells (Southern blot, densitometry); assay type: cell-based, HBV in human hepatoma HepG 2.2.15 cells; details: for increase in intracellular HBV copy abundance: adjusted for loading variation
Description: HepG 2.2.15 cells were grown for 6 days in the presence of the indicated concentration of NBDNJ with one change of medium. After the sixth day (seventh day in culture), cells and medium were collected. Autoradiograms of the viral DNA detected by hybridization of membranes to HBV probes are shown.
FIG. 2B: autoradiogram of a Southern blot of total intracellular DNA, digested to completion with EcoRI, from cells maintained in the absence of NBDNJ (lane 1) and in the presence of the following NBDNJ concentrations:
DNA was prepared from the pellets as in Sells and Chen, Proc. Natl. Acad. Sci. USA 84, 1005-1009 (1987). For Southern blots [Maniatis et al., Molecular cloning, a laboratory manual, Cold Spring Harbor Laboratory, Cold Spring Harbor, N.Y. (1982)], DNA was resolved by electrophoresis through 1.2% agarose, transferred to H+ bond (Amersham) filter paper and hybridized with radioactive ^32 P (Amersham) HBV probe (made by the random priming method described by the kit manufacturer, (Amersham), using pHBV as template [Foster et al., Proc. Natl. Acad. Sci. USA 88, 2888-2892 (1991)].
The NBDNJ-mediated decrease in virion associated HBV DNA in the medium could have been due to a decrease in viral DNA synthesis. Alternatively, it could have been due to a post synthetic event such as virion assembly, transport or egress from the cell. To distinguish between these possibilities, the amount of intracellular HBV specific DNA in untreated and NBDNJ treated 2.2.15 cells was compared.
Total cellular DNA was prepared from treated and untreated cells and digested to completion with EcoRI to linearize viral genomes. Near equal microgram amounts of digestion products (as determined by ethidium bromide staining and hybridization to a cell specific probe) were resolved by electrophoresis, Southern blotted and hybridized with the HBV specific probe (FIG. 2B). Unit length HBV genomes migrating as 3.2 kb bands are detected in DNA derived from untreated 2.2.15 cells (lane 1) and virions isolated from control culture medium (lane 5).

SHBs (S) antigen = assay: ELISA of SHBs (S) antigen in unfractionated culture medium of 2.2.15 cells; assay type: cell-based, HBV
Description: as §1, §2, §3, §4, §5

hepatitis B virus (HBV) [3] = assay: Secretion of HBV particles from HepG 2.2.15 and HBV infected HepG2 cells; assay type: cell-based, HBV in human hepatoma cells
HBs proteins = assay: ELISA of HBs proteins in virion fraction of medium (sucrose gradient); assay type: cell-based, HBV; details: 40-46% sucrose fraction
Description: as §1, §2
Monoclonal antibodies used herein are well-known and are described by Heerman et al., J. Virol. 52, 396-402 (1984), for antibody to PreS1 (MA 18/7); Heerman et al., Intervirology 28: 14-21 (1987), for antibody to PreS2 (Q 19/10), see also Gerlich and Bruss, Molecular Biology of Hepatitis B Virus, ed. […]
as §4, with “quantification. […]” for “quantification.”

HIV = details: read-out: EC50 for inhibition of HIV replication; cited from earlier work
[4] = stably transfected HepG 2.2.15 cells and HBV infected HepG2 cells

CCCCN1C[C@H](O)[C@@H](O)[C@H](O)[C@H]1CO [NBDNJ, N-butyl-1,5-dideoxy-1,5-imino-D-glucitol]
viability at 144 h [1]: 90%
effect upon total amount of LHBs (PreS1) antigen in medium (LHBs (PreS1) antigen): no significant effect
increase in intracellular HBV copy abundance (hepatitis B virus (HBV) [2]; NBDNJ 200 μg/ml): 1.7 fold
increase in intracellular HBV copy abundance (hepatitis B virus (HBV) [2]; NBDNJ 500 μg/ml): 3.0 fold
increase in intracellular HBV copy abundance (hepatitis B virus (HBV) [2]; NBDNJ 1000 μg/ml): 5.1 fold
amount of intracellular HBV DNA (in words) (hepatitis B virus (HBV) [2]; NBDNJ 200, 500, 1000 μg/ml): clear dose-dependent increase
effect upon total amount of SHBs (S) antigen in medium (SHBs (S) antigen): no significant effect
sensitivity of HBV virions and particles containing LHBs and MHBs vs SHBs enriched particles (hepatitis B virus (HBV) [3]; relative to small SHBs enriched particles): more sensitive
intracellular retention of HBV DNA (in words) (hepatitis B virus (HBV) [3]; [4]): cause intracellular retention of HBV DNA
secretion of HBV particles (in words) (hepatitis B virus (HBV) [3]; [4]): suppress the secretion of HBV particles
HBs proteins in virion samples from medium (HBs proteins; NBDNJ 2.25 mM (approximately 500 μg/ml)): virtually no detectable HBs proteins
HBs proteins in virion samples from medium (HBs proteins; NBDNJ 4.5 mM (approximately 1000 μg/ml)): virtually no detectable HBs proteins
EC50 (HIV): 43 µM
